Like-named read-outs stand apart in the source and are kept apart here.
Assays:
human recombinant TYK2 = human recombinant TYK2 (Homo sapiens, UniProt P29597); experiment: LanthaScreen kinase assay; assay type: biochemical
mouse recombinant JAK1 = mouse recombinant JAK1 (Mus musculus, UniProt P52332); experiment: LanthaScreen kinase assay; assay type: biochemical
[1] = test system: IL-13-induced pSTAT6 in HT-29 cells; experiment: HT-29 IL-13/pSTAT6 assay; assay type: cell-based; conditions: Homo sapiens, HT-29, read-out: Mean ± SD inhibitory potency [pIC50], IL-13/pSTAT6 (converted)
[2] = test system: IL-13-potentiated IL-8 production in HT-29 cells; experiment: HT-29 IL-13/IL-8 assay; assay type: cell-based; conditions: Homo sapiens, HT-29, read-out: Mean ± SD inhibitory potency [pIC50], IL-13/IL-8 (converted)
[3] = test system: IL-4-induced pSTAT6 in THP-1 cells; experiment: THP-1 IL-4/pSTAT6 assay; assay type: cell-based; conditions: Homo sapiens, THP-1, read-out: Mean ± SD inhibitory potency [pIC50], IL-4/pSTAT6 (converted)
[4] = test system: IL-6-induced pSTAT3 in THP-1 cells; experiment: THP-1 IL-6/pSTAT3 assay; assay type: cell-based; conditions: Homo sapiens, THP-1, read-out: Mean ± SD inhibitory potency [pIC50], IL-6/pSTAT3 (converted)
[5] = test system: GM-CSF-induced pSTAT5 in THP-1 cells; experiment: THP-1 GM-CSF/pSTAT5 assay; assay type: cell-based; conditions: Homo sapiens, THP-1, read-out: Mean ± SD inhibitory potency [pIC50], GM-CSF/pSTAT5 (converted)
[6] = test system: GM-CSF-induced pSTAT5 in human whole blood; experiment: Human whole blood GM-CSF/pSTAT5 assay; assay type: cell-based; conditions: read-out: Mean ± SD inhibitory potency [pIC50], GM-CSF/pSTAT5 (converted)
[7] = test system: IL-6-induced pSTAT1 in Balb/C mouse primary colonic epithelial cells; experiment: Mouse colonic epithelial cell IL-6/pSTAT1 assay; assay type: cell-based; conditions: from Table 1 pIC50
[8] = test system: oxazolone-induced colitis; experiment: Oxazolone-induced colitis model; assay type: in vivo, Balb/C mice; conditions: for effects of oxazolone (DAI and subscores): highest dose tested, 30 mg/kg
pSTAT3 in colonic mucosa = experiment: Target engagement in the oxazolone colitis model; assay type: in vivo, Balb/C mice; conditions: oral 30 mg/kg BID; for T cell infiltration into the colonic mucosa: oxazolone-treated mice
[9] = test system: splenic NK, T and B cells; experiment: Splenocyte studies; assay type: in vivo, Balb/C mice; conditions: 3 days
[10] = test system: moderately to severely active UC; experiment: Phase 1b study, efficacy assessments; assay type: in vivo, human; conditions: after the 28-day treatment, all doses
[11] = FTIH SAD/MAD study, safety and tolerability in healthy subjects; assay type: in vivo, human; conditions: single dose up to 1000 mg, daily doses up to 300 mg for 14 days
[12] = Phase 1b study, safety and tolerability in UC patients; assay type: in vivo, human; conditions: 20, 80, 270 mg QD 28 days
clinical = conditions: human, in vivo
[13] = Oral pharmacokinetics in mice; conditions: for concentration at 24 h / Cmax: male, Balb/C, mouse, in vivo, 10 mg/kg; for Cmax: po

Chain of mouse recombinant JAK1 (P52332 whole entry): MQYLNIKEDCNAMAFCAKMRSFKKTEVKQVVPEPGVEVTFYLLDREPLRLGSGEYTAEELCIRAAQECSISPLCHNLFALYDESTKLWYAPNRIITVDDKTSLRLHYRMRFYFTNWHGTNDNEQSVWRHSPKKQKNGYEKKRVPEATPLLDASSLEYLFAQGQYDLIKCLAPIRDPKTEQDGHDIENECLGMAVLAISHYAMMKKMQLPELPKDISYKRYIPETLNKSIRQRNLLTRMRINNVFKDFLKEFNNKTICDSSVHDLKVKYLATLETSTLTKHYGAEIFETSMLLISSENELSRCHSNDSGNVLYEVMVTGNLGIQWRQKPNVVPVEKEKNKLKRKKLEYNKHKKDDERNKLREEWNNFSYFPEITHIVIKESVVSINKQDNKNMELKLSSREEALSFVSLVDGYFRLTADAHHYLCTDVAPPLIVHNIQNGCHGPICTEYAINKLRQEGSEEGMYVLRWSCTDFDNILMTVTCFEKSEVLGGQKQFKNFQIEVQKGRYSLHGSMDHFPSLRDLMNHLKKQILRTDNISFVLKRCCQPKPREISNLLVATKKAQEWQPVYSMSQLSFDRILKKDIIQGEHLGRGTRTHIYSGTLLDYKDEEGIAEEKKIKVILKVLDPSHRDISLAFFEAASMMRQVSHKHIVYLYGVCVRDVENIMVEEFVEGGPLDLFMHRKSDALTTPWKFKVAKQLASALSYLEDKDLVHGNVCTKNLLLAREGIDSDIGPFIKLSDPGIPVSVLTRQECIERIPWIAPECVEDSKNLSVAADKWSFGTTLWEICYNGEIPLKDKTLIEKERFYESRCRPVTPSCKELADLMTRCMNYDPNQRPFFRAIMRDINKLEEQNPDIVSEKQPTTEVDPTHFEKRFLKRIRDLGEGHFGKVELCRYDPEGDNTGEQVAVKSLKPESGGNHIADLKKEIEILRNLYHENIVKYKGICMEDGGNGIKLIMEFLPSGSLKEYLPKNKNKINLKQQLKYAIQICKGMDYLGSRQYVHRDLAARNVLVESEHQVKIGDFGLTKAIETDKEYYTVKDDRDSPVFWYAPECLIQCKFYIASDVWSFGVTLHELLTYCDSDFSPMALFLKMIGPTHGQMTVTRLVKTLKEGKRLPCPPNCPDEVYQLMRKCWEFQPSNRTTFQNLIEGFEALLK
Chain of human recombinant TYK2 (P29597 whole entry): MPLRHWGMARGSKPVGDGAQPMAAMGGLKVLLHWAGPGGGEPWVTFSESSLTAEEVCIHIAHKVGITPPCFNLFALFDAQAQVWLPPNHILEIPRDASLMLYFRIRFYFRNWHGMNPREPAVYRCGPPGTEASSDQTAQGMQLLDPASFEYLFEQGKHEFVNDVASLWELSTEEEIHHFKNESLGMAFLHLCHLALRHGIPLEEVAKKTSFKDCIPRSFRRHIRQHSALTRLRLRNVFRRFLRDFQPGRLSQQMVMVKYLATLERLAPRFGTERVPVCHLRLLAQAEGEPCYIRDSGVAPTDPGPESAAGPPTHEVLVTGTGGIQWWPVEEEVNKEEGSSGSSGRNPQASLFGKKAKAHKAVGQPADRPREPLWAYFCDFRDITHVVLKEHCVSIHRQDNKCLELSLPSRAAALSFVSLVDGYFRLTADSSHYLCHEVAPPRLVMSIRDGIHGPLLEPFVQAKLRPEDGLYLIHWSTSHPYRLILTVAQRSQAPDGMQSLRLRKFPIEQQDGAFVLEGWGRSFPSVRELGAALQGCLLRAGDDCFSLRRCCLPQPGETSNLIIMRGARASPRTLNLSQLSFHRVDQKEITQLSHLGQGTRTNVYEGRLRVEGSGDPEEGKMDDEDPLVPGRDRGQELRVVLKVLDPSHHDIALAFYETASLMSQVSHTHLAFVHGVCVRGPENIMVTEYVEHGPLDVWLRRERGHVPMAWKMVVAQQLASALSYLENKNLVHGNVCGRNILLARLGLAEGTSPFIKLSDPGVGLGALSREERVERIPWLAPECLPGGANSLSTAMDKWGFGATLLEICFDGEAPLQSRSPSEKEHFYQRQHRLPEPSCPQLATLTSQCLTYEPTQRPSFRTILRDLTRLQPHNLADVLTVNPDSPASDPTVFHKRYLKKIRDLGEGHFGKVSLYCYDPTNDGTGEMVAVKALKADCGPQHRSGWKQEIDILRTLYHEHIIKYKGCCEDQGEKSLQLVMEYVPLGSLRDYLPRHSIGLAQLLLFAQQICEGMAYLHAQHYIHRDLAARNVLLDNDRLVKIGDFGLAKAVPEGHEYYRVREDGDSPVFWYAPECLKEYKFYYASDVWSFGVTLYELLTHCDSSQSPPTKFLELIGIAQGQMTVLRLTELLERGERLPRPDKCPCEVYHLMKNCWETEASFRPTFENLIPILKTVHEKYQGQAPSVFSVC

For `Cc1cc(Nc2cc3ncccc3c(N[C@@H]3C[C@H]4CC[C@@H](C3)N4CCC#N)n2)n[nH]1` [TD-1473], the “stronger potency for TYK2 compared with tofacitinib” value (human recombinant TYK2) was “approximately 40 fold”, the Ki (mouse recombinant JAK1) was 0.0631 nM and the IC50 [1] was 79.4 nM. It also gave an IC50 [2] of 79.4 nM, an IC50 [3] of 31.6 nM and an IC50 [4] of 50.1 nM. For the same compound, the IC50 [5] was 100 nM, the IC50 [6] was 200 nM and the “mouse colonic epithelial IL-6/pSTAT1 IC50” value [7] was 0.020 µg/g. The “effects of oxazolone (DAI and subscores)” value [8] was “did not significantly attenuate”, the “oxazolone-induced elevated DAI, reduction in body weight and stool consistency, increase in stool blood content” value ([8]; oral 0.3–10 mg/kg BID) was “attenuated” and the “T cell infiltration into the colonic mucosa” value (pSTAT3 in colonic mucosa; 30 mg/kg) was “preventing T cell infiltration”. For the same compound, the “pSTAT3 levels in colonic mucosa of oxazolone-treated mice vs vehicle” value (pSTAT3 in colonic mucosa; 30 mg/kg) was “significantly inhibited”, the “numbers of splenic NK, B or T cells vs vehicle” value ([9]; oral 1, 10 and 100 mg/kg BID) was “did not affect” and the clinical remission [10] was “No patient achieved clinical remission”. The tolerability [11] was “generally well tolerated”, the “TEAE incidence, TD-1473 treatment arms overall” value [12] was 38.7% and the “laboratory parameters (haematological, renal, hepatic, creatinine phosphokinase, lipid)” value [12] was “did not adversely affect”. The tolerability [12] was “generally well tolerated”, the “colonic tissue concentration, geometric mean [95% CI]” value (20 mg QD, day 28) was 4090 [2270–7380] pg/g and the “geometric mean colonic tissue concentration [average of sigmoid and rectum]” value (20 mg QD, day 28) was 4090 pg/mL. The “patients with plasma trough concentration BLQ” value (20 mg, day 14) was 4/9, the “geometric mean colonic tissue concentration [average of sigmoid and rectum]” value (80 mg QD, day 28) was 65 300 pg/mL and the “geometric mean trough concentration as % of Cmax” value (80 mg, day 14) was 3.57%. For the same compound, the “geometric mean colonic tissue concentration [average of sigmoid and rectum]” value (270 mg QD, day 28) was 43 500 pg/mL, the “geometric mean trough concentration as % of Cmax” value (270 mg, day 14) was 5.79% and the Tmax (clinical) was ~1 h. The concentration at 24 h [13] was < 0.25 nM, the Cmax ([13]; colon, 10 mg/kg oral) was 3690 ng/g and the Cmax ([13]; plasma, 10 mg/kg oral) was 1.4 ng/mL.
With `C[C@@H]1CCN(C(=O)CC#N)C[C@@H]1N(C)c1ncnc2[nH]ccc12` [tofacitinib, reference compound] the “effects of oxazolone (DAI and subscores)” value [8] was “did not significantly attenuate”, the “oxazolone-induced elevated DAI, reduction in body weight and stool consistency, increase in stool blood content” value ([8]; oral 10 and 15 mg/kg TID) was “attenuated” and the “T cell infiltration into the colonic mucosa” value (pSTAT3 in colonic mucosa) was “preventing T cell infiltration”. For the same compound, the “pSTAT3 levels in colonic mucosa of oxazolone-treated mice vs vehicle” value (pSTAT3 in colonic mucosa; 30 mg/kg) was “significantly inhibited”, the “splenic T and B cell numbers” value ([9]; oral 10, 15 and 30 mg/kg TID) was “did not affect” and the “colonic level 24 h postdose (BLQ)” value ([13]; 10 mg/kg oral) was < 0.00025 µM. The concentration at 24 h [13] was < 0.25 nM, the Cmax ([13]; colon, 10 mg/kg oral) was 2570 ng/mL and the Cmax ([13]; plasma, 10 mg/kg oral) was 193 ng/mL.
